Assay [1] deals with T1, Hypoxanthine-guanine phosphoribosyltransferase (Homo sapiens, UniProt P00492).
T1 sequence (P00492 whole entry): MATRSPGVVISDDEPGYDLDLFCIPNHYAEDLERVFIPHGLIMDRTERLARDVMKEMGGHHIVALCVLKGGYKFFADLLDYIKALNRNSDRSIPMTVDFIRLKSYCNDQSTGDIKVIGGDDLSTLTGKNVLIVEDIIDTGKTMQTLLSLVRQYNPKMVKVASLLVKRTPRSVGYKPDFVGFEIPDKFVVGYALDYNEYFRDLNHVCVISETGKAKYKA
Briefly: Inhibition of human HGPRT.

Assay [2] is described as follows: Inhibition of Plasmodium falciparum HGXPRT.
Assay [3] is described as follows: Inhibition of Plasmodium vivax HGPRT.

Structures are written as SMILES.

As a reminder, the Ki is a dissociation constant, usually derived from enzyme kinetics or from competition with a known ligand. Low values mean tighter binding, high ones weaker binding. As for `O=c1[nH]cnc2c1ncn2CP(=O)(O)O`, the Ki was 1.9 µM in assay [1], over 100 µM in assay [2] and over 100 µM in assay [3].

On to `Nc1nc(O)c2ncn(CCCCCP(=O)(O)O)c2n1`, for which the figures for the Ki in assay [1], in assay [2] and in assay [3] were 0.5 µM, 2 µM and 6 µM, respectively.

`Nc1nc2c(ncn2COCCCP(=O)(O)O)c(=O)[nH]1`: the Ki was found to be 3 µM in assay [1], 6.7 µM in assay [2] and 1 µM in assay [3].

With `O=c1[nH]cnc2c1ncn2CCCCCCP(=O)(O)O`, the results for the inhibitory constant (Ki) in assay [1] and in assay [2] were 77 µM and 97 µM, respectively.

`O=c1[nH]cnc2c1ncn2CCCP(=O)(O)O`: the inhibition constant Ki in assay [1], in assay [2] and in assay [3] was over 100 µM each time.

For the compound `O=c1[nH]cnc2c1ncn2CCP(=O)(O)O`, the Ki in assay [1] is 3.4 µM; in assay [2], 2.2 µM; in assay [3], over 100 µM.

On to `Nc1nc2c(ncn2CCP(=O)(O)O)c(=O)[nH]1`, for which the Ki in assay [1], in assay [2] and in assay [3] was over 100 µM each time.

For the compound `O=c1[nH]cnc2c1ncn2CCCCP(=O)(O)O`, the Ki in assay [1], in assay [2] and in assay [3] was over 100 µM each time.

As for `Nc1nc2c(ncn2CCCP(=O)(O)O)c(=O)[nH]1`, the inhibition constant Ki in assay [1], in assay [2] and in assay [3] was over 100 µM each time.

As to `Nc1nc(O)c2ncn(CCCCP(=O)(O)O)c2n1`, the Ki in assay [1] was 21 µM; in assay [2], over 100 µM; in assay [3] it was over 100 µM.

Take `Nc1nc(O)c2ncn(COCCP(=O)(O)O)c2n1`: the Ki was 31 µM in assay [1], 5 µM in assay [2] and 24 µM in assay [3].

Regarding `Nc1nc(O)c2ncn(CCCCCCCP(=O)(O)O)c2n1`, the inhibition constant (Ki) in assay [1] amounted to 5 µM; in assay [2] it was 10 µM.

Turning to `Nc1nc(O)c2ncn(COCCCCP(=O)(O)O)c2n1`, the Ki in assay [1] was 0.4 µM; in assay [2], 200 µM; in assay [3], over 100 µM.

As for `O=P(O)(O)CCCCCn1cnc2c(O)ncnc21`, the inhibitory constant (Ki) was over 100 µM in assay [1] and 21 µM in assay [2].

As to `O=c1[nH]cnc2c1ncn2CCCCCCCP(=O)(O)O`, the Ki in assay [1], in assay [2] and in assay [3] was over 100 µM in each case.

With `Nc1nc2c(ncn2CP(=O)(O)O)c(=O)[nH]1`, the inhibitory constant (Ki) in assay [1], in assay [2] and in assay [3] was over 100 µM in each case.

For `Nc1nc2c(ncn2CCCCCCP(=O)(O)O)c(=O)[nH]1`, the Ki was 0.5 µM in assay [1], over 100 µM in assay [2] and over 100 µM in assay [3].

For the compound `O=c1[nH]cnc2c1ncn2COCCP(=O)(O)O`, the inhibition constant (Ki) is 56 µM in assay [1], 25 µM in assay [2] and 30 µM in assay [3].

For `O=c1[nH]cnc2c1ncn2COCCCCP(=O)(O)O`, the Ki in assay [1] came out at 28 µM; in assay [2], 29 µM.

The record behind these values is ChEMBL document CHEMBL1926609, “Synthesis of 9-phosphonoalkyl and 9-phosphonoalkoxyalkyl purines: evaluation of their ability to act as inhibitors of Plasmodium falciparum, Plasmodium vivax and human hypoxanthine-guanine-(xanthine) phosphoribosyltransferases” (Bioorg Med Chem, 2012).
